# Test results from US20200289554A1, “BIOORTHOGONAL COMPOUNDS COMPRISING A PROPARGYL GROUP FOR TREATING CANCER” (THE UNIVERSITY COURT OF THE UNIVERSITY OF EDINBURGH, priority 2016, published 2020).
# Read-outs that look alike come from different tables or passages of the source.
# Experiments:
# [1] = test system: A549 cells; assay: Prodrug safety dose-response cell viability (PrestoBlue), A549; format: cell-based; details: Homo sapiens, 120 h, 5 days, no catalyst
# Procedure: (§1) These cell lines were selected as these are primary malignancies against which the parental drugs are currently prescribed.
# (§2) The toxicities of each active agent and prodrugs were compared by performing dose-response studies. […] Cell viability was analysed by fluoresce intensity (λex=540 nm; λem=590 nm) after 60-90 min incubation with PrestoBlue™ Reagent (Life Technologies).
# [2] = test system: U87G cells; assay: Prodrug safety dose-response cell viability (PrestoBlue), U87G; format: cell-based, human; details: U87G cells, 5 days, no catalyst, read-out: EC50 (cell viability)
# Procedure: as §1, §2
# [3] = test system: T98 cells; assay: Prodrug safety dose-response cell viability (PrestoBlue), T98; format: cell-based; details: Homo sapiens, 120 h, 5 days, no catalyst
# Procedure: as §1, §2
# [4] = test system: A549 cells; assay: BOOM conversion: prodrug + metal resins in cell culture, cell viability, A549; format: cell-based, human; details: Pd0-resin 1 mg/mL, 100 μM Vorinostat prodrugs, 1 μM Doxorubicin prodrugs, 0.3 μM Panobinostat prodrug
# Procedure: Cell viabilities for each prodrug provided as a combination with palladium is presented in FIG. 3 and gold is presented in FIG. 33 in the right of each set of two bars. […] Cells were incubated in tissue culture media containing 0.1% (v/v) DMSO and: Pd^0, Au, or Pd/Au-resins (1 mg/mL, negative control); 100 μM of each prodrug (negative control); and Pd^0, Au, or Pd/Au-resins (1 mg/mL)+100 μM of each prodrug (BOOM reaction assay). Cells incubated in 0.1% (v/v) DMSO in media were used as untreated cell control.
# (§3) Following 5 days treatment, cells were incubated with PrestoBlue™ Cell Viability Reagent (Life Technologies) for 60-90 min. Fluorescence intensity values were related to the untreated cells (100% cell viability). […] Cells incubated in 0.1% (v/v) DMSO in media were used as untreated cell control.
# (§4) Cell viabilities for each prodrug provided as a combination with palladium is presented in FIG. 7 in the right of each set of two bars. Data for prodrug in the absence of palladium catalyst is also provided (the left bar of each set of two bars) for comparison along with negative controls (from left to right: DMSO, Pd^0 and Doxorubicin). Cells were incubated in tissue culture media containing 0.1% (v/v) DMSO and: Pd^0-resins (1 mg/mL, negative control); 1 μM of each prodrug (negative control); and Pd^0-resins (1 mg/mL)+1 μM of each prodrug (BOOM reaction assay). Cells incubated in 0.1% (v/v) DMSO in media were used as untreated cell control.
# (§5) Following 5 days treatment, cells were incubated with PrestoBlue™ Cell Viability Reagent (Life Technologies) for 90 min. Fluorescence intensity values were related to the untreated cells (100% cell viability). Data are provided in FIG. 8 for cells incubated in tissue culture media containing 0.1% (v/v) DMSO and: Pd^0-resins (1 mg/mL, negative control); 0.3-3 μM of Doxorubicin prodrug for A549 and DU145 cell lines, 0.1-1 μM of Doxorubicin prodrug for T98 cell line (negative control); 0.3-3 μM of Doxorubicin for A549 and DU145 cell lines, 0.1-1 μM of Doxorubicin for T98 cell line (positive control); and Pd^0-resin (1 mg/mL)+Doxorubicin prodrug (BOOM reaction assay). Cells incubated in 0.1% (v/v) DMSO in media were used as untreated cell control.
# as §4, with “21” for “7”, “panobinostat).” for “Doxorubicin).”
# (§6) The toxigenic effect as a result of in situ generation of parental drug in cell culture was determined by incubating all cells in tissue culture media containing 0.1% (v/v) DMSO and a) Pd^0, Au, or Pd/Au-resin (1 mg/mL for all cells tested, negative control); b) prodrug (negative control); or c) Pd^0, Au, or Pd/Au-resin (1 mg/mL for all cells)+prodrug (reaction assay). Cells incubated in 0.1% (v/v) DMSO in media was used as an untreated cell reference standard (100% viability). A PrestoBlue® cell viability assay as described above was carried out and fluorescent intensities compared to the untreated cell control.
# (§7) A dose response study was performed for each cell line keeping the quantity of Pd^0 resin constant (0.8 mg/mL for U87G and 1 mg/mL for the rest of cell lines). All cells were plated in Dulbecco's Modified Eagle Media (DMEM) supplemented with serum (10% FBS) and L-glutamine (2 mM). […]
# [5] = test system: T98 cells; assay: BOOM conversion: prodrug + Pd0-resins in cell culture, cell viability, T98; format: cell-based, human; details: Pd0-resin 1 mg/mL, 1 μM Doxorubicin prodrugs
# Procedure: as §3, §4, §5, §6, §7
# [6] = test system: DU145 cells; assay: BOOM conversion: prodrug + Pd0-resins in cell culture, cell viability, DU145; format: cell-based, human; details: Pd0-resin 1 mg/mL, 1 μM Doxorubicin prodrugs
# Procedure: as §4
# as §5, with “Cells incubated in 0.1% (v/v) DMSO in media were used as untreated cell control.” left out
# (§8) The toxigenic effect as a result of in situ generation of parental drug in cell culture was determined by incubating all cells in tissue culture media containing 0.1% (v/v) DMSO and a) Pd^0, Au, or Pd/Au-resin (1 mg/mL for all cells tested, negative control); b) prodrug (negative control); or c) Pd^0, Au, or Pd/Au-resin (1 mg/mL for all cells)+prodrug (reaction assay). […]
# (§9) A dose response study was performed for each cell line keeping the quantity of Pd^0 resin constant (0.8 mg/mL for U87G and 1 mg/mL for the rest of cell lines). […] Fluorescence intensity values (detected using a PerkinElmer EnVision 2101 multilabel reader with excitation filter at 540 nm and emissions filter at 590 nm) were determined relative to the untreated cell control.
# [7] = test system: MiaPaCa2 cells; assay: BOOM conversion: prodrug + Pd0-resins in cell culture, cell viability, MiaPaCa2; format: cell-based, human; details: Pd0-resin 1 mg/mL, 0.03 μM Gemcitabine prodrugs
# Procedure: as §4, with “FIG. 10” for “FIG. 7”, “and Gemcitabine).” for “and Doxorubicin).”, “control); 0.03” for “control); 1”, “(1 mg/mL)+0.03” for “(1 mg/mL)+1”
# Following 5 days treatment, cells were incubated with PrestoBlue™ Cell Viability Reagent (Life Technologies) for 90 min. Fluorescence intensity values were related to the untreated cells (100% cell viability). Data are provided in FIG. 11 for cells incubated in tissue culture media containing 0.1% (v/v) DMSO and: Pd^0-resins (1 mg/mL, negative control); 0.003-0.3 μM of pPOBC-Gem (negative control); 0.003-0.3 μM of Gemcitabine (positive control); and Pd^0-resin (1 mg/mL)+pPOBC-Gem (BOOM reaction assay). Cells incubated in 0.1% (v/v) DMSO in media were used as untreated cell control.
# as §8, with “assay). Cells incubated in 0.1% (v/v) DMSO in media was used as an untreated cell reference standard (100% viability).” for “assay).”
# as §9
# [8] = test system: MiaPaCa2 cells; assay: Prodrug safety dose-response cell viability (PrestoBlue), MiaPaCa2; format: cell-based, human; details: Homo sapiens, MIA PaCa-2, 120 h, 5 days, no catalyst
# Procedure: as §1, §2
compound,measurement,setting,value
"O=C(CCCCCCC(=O)Nc1ccccc1)NOCc1ccccc1 [Benzyl-Vor, Benzyl-Vorinostat]",EC50,[1],> 500 µM
same,EC50,"[2]; Homo sapiens, 120 h",> 500 µM
same,EC50,[3],> 500 µM
same,toxigenic effect of prodrug + Pd0 resins,[4],only low levels of toxicity
"COc1cccc2c1C(=O)c1c(O)c3c(c(O)c1C2=O)C[C@@](O)(C(=O)CO)C[C@@H]3OC1C[C@H](NC(=O)OCc2ccccc2)[C@H](O)[C@H](C)O1 (stereo partly shown) [Cbz-Dox, Carboxybenzyl Doxorubicin]",toxigenic effect of prodrug + Pd0 resins,[4],only low levels of toxicity
same,toxigenic effect of prodrug + Pd0 resins,[5],only low levels of toxicity
same,toxigenic effect of prodrug + Pd0 resins,[6],only low levels of toxicity
"O=C(Nc1ccn(C2OC(CO)C(O)C2(F)F)c(=O)n1)OCc1ccccc1 (stereo not shown) [Cbz-Gem, reference compound]",toxigenic effect of prodrug + Pd0 resins,[7],only low levels of toxicity
"COc1cc([C@@H]2c3cc4c(cc3[C@@H](O[C@@H]3O[C@@H]5CO[C@@H](C)O[C@H]5[C@H](O)[C@H]3O)[C@H]3COC(=O)[C@H]23)OCO4)cc(OC)c1O [Etoposide, reference compound]",EC50,"[2]; Homo sapiens, 120 h",4.97 µM
"Nc1ccn([C@@H]2O[C@H](CO)[C@@H](O)C2(F)F)c(=O)n1 [Gemcitabine, reference compound]",EC50,[8],0.013 µM
"C#CCOc1ccc(CONC(=O)/C=C/c2ccc(CNCCc3c(C)[nH]c4ccccc34)cc2)cc1 [POB-Panob, Propargyloxybenzyl-Panobinostat]",EC50,[1],0.758 µM
same,toxigenic effect of prodrug + Pd0 resins,[4],strong toxigenic effect
"Cc1[nH]c2ccccc2c1CCNCc1ccc(/C=C/C(=O)NO)cc1 [Panobinostat, reference compound]",EC50,[1],0.016 µM
"CCc1c2c(nc3ccc(O)cc13)-c1cc3c(c(=O)n1C2)COC(=O)[C@]3(O)CC [SN-38, 10-Hydroxy-7-ethylcamptothecin, reference compound]",EC50,[2],0.0246 µM
"O=C(CCCCCCC(=O)Nc1ccccc1)NO [Vorinostat, reference compound]",EC50,[1],4.85 µM
same,EC50,[3],12.4 µM
"C#CCOc1ccccc1COC(=O)N[C@H]1CC(O[C@H]2C[C@](O)(C(=O)CO)Cc3c(O)c4c(c(O)c32)C(=O)c2c(OC)cccc2C4=O)O[C@@H](C)[C@H]1O (stereo partly shown) [oPOBC-Dox, 2-proparglyoxybenzylcarbamoyl Doxorubicin]",toxigenic effect of prodrug + Pd0 resins,[4],strong toxigenic effect
same,toxigenic effect of prodrug + Pd0 resins,[5],strong toxigenic effect
same,toxigenic effect of prodrug + Pd0 resins,[6],strong toxigenic effect
"C#CCOc1ccc(COC(=O)N[C@H]2CC(O[C@H]3C[C@](O)(C(=O)CO)Cc4c(O)c5c(c(O)c43)C(=O)c3c(OC)cccc3C5=O)O[C@@H](C)[C@H]2O)cc1 (stereo partly shown) [pPOBC-Dox, 4-proparglyoxybenzylcarbamoyl Doxorubicin]",toxigenic effect of prodrug + Pd0 resins,[4],strong toxigenic effect
same,toxigenic effect of prodrug + Pd0 resins,[5],strong toxigenic effect
same,toxigenic effect of prodrug + Pd0 resins,[6],strong toxigenic effect
